Reference: US20250108064A1, “PHOSPHATE PRODRUGS OF CANNABINOIDS” (priority 2021, published 2025)

Tests used:
physchem = format: physicochemical; details: aqueous buffer, kinetic from dmso stock; nephelometry, PBS pH 7.0-7.3, 1% DMSO, 25° C., 90 min
Protocol: General Experimental: Nephelometry experiments were performed using untreated Corning® Costar® 96-well black polystyrene plates with clear flat bottoms. Sample stock solutions and serial dilutions were prepared with DriSolv® DMSO purchased from MilliporeSigma. All 100-fold dilutions and replicate experiments were prepared using Gibco® Dulbecco's phosphate-buffered saline (DPBS, no calcium, no magnesium) with a pH range of 7.0-7.3 as aqueous media. […] Nephelometry data was obtained using a NEPHELOstar® microplate reader and processed with MARS data analysis software from BMG LabTech.
Procedure for Nephelometry Experiments: Tested compounds were dissolved in 100% DMSO to make stock solutions of specified concentrations, ranging from 10 mM minimum up to 50 mM maximum. The sample then underwent serial dilution in a 96-well plate (Corning® Costar®). Well A1 of the plate contained 100% DMSO. […] Using a 12 channel multichannel pipette, 2.5 μL of sample from row A was transferred to each well in row B through row H of the plate. Next, 30 μL of PBS (pH=7.0-7.3) was added to row B through row H, providing each well with 32.5 μL. The plate was then incubated for 30 sec with shaking. Finally, 217.5 μL of PBS buffer was added to row B through row H, and the entire plate was incubated with shaking at 25° C. for 90 min. Note: The final volume of DMSO in actual experiments with PBS buffer was 1% throughout the plate. After 90 min, the 96-well plate was analyzed with a NEPHELOstar® instrument and the data was processed with MARS data analysis software.

[1] = Plasma stability assay (human plasma); format: in vitro ADME; details: 37° C., read-out: T½ in human plasma (converted)
Protocol: General Experimental: Procaine and Procainamide were purchased from Sigma-Aldrich. Human plasma was obtained from BioIVT (Cat. No. […]2N) and 1X Dulbecco's PBS (pH 7.4, Gibco) was obtained from Thermos Fischer. Stock solutions were prepared in 100% DMSO, and suitable dilutions of target analytes were prepared in methanol for method development.
Procedure for Plasma Stability Assay: Test compounds were dissolved in DMSO to make a stock solution of 10 mM and then diluted to 500 μM in buffer (or 70% MeOH). Human plasma was thawed at ambient temperature and is aliquoted ([…]) to a 1.5 mL Eppendorf tube in duplicates (A and B) for each compound. Plasma was incubated at 37° C. for 10 minutes in an incubator shaker at 150 rpm; the reaction was initiated by the addition of the test compound (6.0 μL) and vortex mixing. The total reaction volume was 1000 μL where the final organic solvent concentrations were 0.6% MeOH and 0.03% DMSO. The spiked plasma samples were incubated at 37° C. for 4 hrs. The reactions were terminated at time points 0, 15, 30, 60, 120, 180, and 240 min by taking a 100 μL aliquot from the test incubation mixture and immediately quenching it in ice-cold acetonitrile containing internal standard (150 μL with 2 μM ISTD), followed by a quick vortex mixing. In addition, matrix blank was prepared by adding acetonitrile solutions containing ISTD to plasma samples without any of the analytes or control compounds. Also, an additional tube was made to measure compound degradation in PBS buffer. The samples were centrifuged at 15000 rpm for 25 min at 4° C. The supernatant was transferred to an LC-MS vial for analysis by LC/MS-MS. Each time point was run in duplicates followed by in-between blank washes to avoid the carryover and to equilibrate the column. Half-life (T1/2) was calculated using the data obtained from LC-MS/MS and by plotting ln (% remaining of the parent prodrug) versus time and performing linear regression to determine slope. Slope=−k and T1/2=0.693/k for first-order kinetics.
These positive controls were run in parallel to test the systems for competency.

C=C(C)[C@@H]1CCC(C)=C[C@H]1c1c(O)cc(CCCCC)cc1OC(=O)C1(OP(=O)(O)O)CC1.N.N [7b, 1-((((1′R,2′R)-6-hydroxy-5′-methyl-4-pentyl-2′-(prop-1-en-2-yl)-1′,2′,3′,4′-tetrahydro-[1,1′-biphenyl]-2-yl)oxy)carbonyl)cyclopropyl phosphate di-ammonium salt]
solubility (physchem): > 500 µM | half-life [1]: 318 min
